Results from patent publication US9844556B2, “Preventive/therapeutic method and preventive/therapeutic agent for complications after cataract surgery” (KOWA COMPANY, LTD., priority 2015, dated 2017).

Assays:
myofibroblasts = conditions: cited from earlier work
[1] = tested on: Human lens epithelial cells (HLEpiC); test: Inhibitory action on actin stress fiber formation (phalloidin staining, confocal microscopy); assay type: cell-based; conditions: treated about an hour
Method: Human lens epithelial cells (HLEpiC (ScienCell Research Laboratories)) were diluted with a medium (Epithelial Cell Medium (ScienCell Research Laboratories)), dispensed to each well of Poly-L-lysine (ScienCell Research Laboratories) coated Imaging Chamber CG at 100 μL/well (about 5000 cells/cm^2), and cultured in a carbon dioxide incubator (37° C., 5% CO2) until about 50% confluent. The medium was removed with vacuum suction and a test substance, a positive control, a comparative control, or the medium (control) at each concentration given below was added to each well at 300 μL/well:
Test substance: Ripasudil with a concentration of 10 μM, 100 μM or 1 mM,
Positive control: Cytochalasin D with a concentration of 2 μM,
These were treated in a carbon dioxide incubator (37° C., 5% CO2) for about an hour, and then washed once with the medium. 4% Paraformaldehyde Phosphate Buffer Solution (Wako Pure Chemical Industries, Ltd.) (hereinafter, referred to as a fixative solution) was added at 300 μL/well, and fixation was carried out at room temperature for 2 minutes. After washing with the medium, 0.5% Triton X-100 (Roche Diagnostics K.K.) was added at 300 μL/well, and penetrated at room temperature for 2 minutes. After washing with the medium, the fixative solution was added at 300 μL/well, and fixation was carried out at room temperature for 20 minutes.
Separately, 25 μL of 14 μM Actin-Stain™ 555 phalloidin (Cytoskeleton, Inc.) (hereinafter, referred to as Phalloidin) was added to 3475 μL of 10 mM phosphate buffered saline (Wako Pure Chemical Industries, Ltd.) to produce 100 nM Phalloidin.
This 100 nM Phalloidin was added to each well washed with the medium at 200 μL/well, and staining was carried out at room temperature in a dark place for about 60 minutes.
After washing with the medium, the chamber was removed, and […] Mounting Medium with DAPI (Vector Laboratories, Inc.) was dropped onto a cover glass with a few drops. A slide glass was placed thereon and this was left to stand at room temperature in a dark place for 30 minutes or more, and adhesion and nuclear staining were carried out and then observed by a confocal laser scanning microscope.

HLEpiC [2] = test: Inhibitory action on cell migration (Oris Cell Migration plate); assay type: cell-based, human; conditions: about 24 and 48 hours after treatment
Method: HLEpiC was diluted with a medium (Epithelial Cell Medium) and dispensed to Poly-L-lysine coated Oris™ Cell Migration 96 well plate, to which a stopper was firmly attached, at 50 μL/well (25000 cells/well) and cultured in a carbon dioxide incubator (37° C., 5% CO2) for 24 hours. The stopper was removed, and after brief washing with the medium, a solution obtained by adding 5 μL of 10 mM Cell Tracker Green Fluorescent Probe (Lonza Walkersville, Inc.) to 4995 μL of the medium was added at 100 μL/well, and the cells were stained in a carbon dioxide incubator (37° C., 5% CO2) for about 30 minutes. After brief washing with the medium, the medium was further added and the cells were cultured in a carbon dioxide incubator (37° C., 5% CO2) for about 30 minutes.
After brief washing with the medium, a test substance, a positive control, a comparative control or the medium (control) at each concentration given below was added at 100 μL/well.
(§1) Test substance: Ripasudil with a concentration of […], 100 μM or 1 mM,
Positive control: CD with a concentration of 2 μM,
These were cultured in a carbon dioxide incubator (37° C., 5% CO2). The state of HLEpiC in the Detection Zone in each sample was observed by a confocal laser scanning microscope about 24 hours after the treatment and 48 hours after the treatment.

HLEpiC [3] = test: Reversibility of inhibition of cell migration after removal; assay type: cell-based, human; conditions: for time after removal at which Detection Zone was filled with HLEpiC: then removal
Method: After the operation in Example 4, the test substance, the positive control, or the comparative control was removed, and after brief washing with the medium, the medium was added at 100 μL/well, and the cells were cultured in a carbon dioxide incubator (37° C., 5% CO2).

[4] = tested on: Human lens epithelial cells (HLEpiC); test: Reversibility of inhibition of actin stress fiber formation after removal; assay type: cell-based; conditions: recultured about 24 hours after removal
Method: After removal of the test substance, positive control or comparative control in Example 1, the cells were recultured for about another 24 hours, treated in accordance with the operation in Example 1, and then observed by a confocal laser scanning microscope in the same manner as in Example 1 to observe the reversibility of actin stress fibers.

HLEpiC [5] = test: Determination of G-actin/F-actin ratio using G-Actin/F-Actin In Vivo Assay Kit; assay type: cell-based, human; conditions: 2 μM, about an hour; control 1.16
Method: HLEpiC was diluted with a medium (Epithelial Cell Medium), and dispensed to a Poly-L-lysine coated T-75 flask at about 5000 cells/cm^2, and cultured in a carbon dioxide incubator (37° C., 5% CO2) until about 50% confluent. A test substance, a positive control or the medium (control) at each concentration given below was added to each flask at 20 mL.
as §1
Positive control: CD with a concentration of 2 μM, and
These were treated in a carbon dioxide incubator (37° C., 5% CO2) for about an hour.
To 20 mL of Lysis and F-actin stabilization buffer was added 200 μL of 100 mM ATP stock solution and 200 μL of 100× Protease inhibitor cocktail stock to produce LAS2 buffer, and this was incubated in a carbon dioxide incubator (37° C.) for about 30 minutes. Warmed LAS2 buffer was added at 2.5 mL to each flask in which the medium was removed with vacuum suction.
Next, adherent HLEpiC was completely scraped with a cell scraper and transferred with the LAS2 buffer to a conical tube, and HLEpiC was crushed with a micropipette (hereinafter, referred to as cell solution). This cell solution was incubated in a carbon dioxide incubator (37° C.) for about 10 minutes and then centrifuged for 10 minutes (2000 rpm, room temperature). The supernatant was dispensed into an ultracentrifugal tube at 1.8 mL and centrifuged for an hour with an ultracentrifuge (100,000× g, 37° C.). At this time, F-actin is precipitated and G-actin remains in the supernatant.
The supernatant was transferred to a conical tube while being careful not to suck F-actin precipitates.
To precipitates of each sample was added 1.8 mL of F-actin depolymerizing buffer, and this was incubated under ice-cold conditions for an hour to depolymerize actin.
From each supernatant sample and precipitate sample, 100 μL each was put in a 1.5 mL Eppendorf tube, and 25 μL of 5×SDS sample buffer was added and stirred.
Each sample was boiled in a boiling water bath for 5 minutes.
Each sample was subjected to SDS-polyacrylamide gel electrophoresis, followed by Western blotting.
Next, after treatment using a Western blotting detection reagent (ECL Select Western Blotting Detection Reagent, GE Healthcare Japan), proteins were detected using a Lumino image analyzer. The quantities of G-actin and F-actin were determined using an analysis software (ImageQuant TL, GE Healthcare Japan) and the G-actin/F-actin ratio was calculated.
The variation in the quantity of F-actin required to form actin stress fibers was evaluated by comparison with the G-actin/F-actin ratio of untreated (Control) cells.

[6] = tested on: Soemmerring's ring, posterior capsule opacification (PCO); conditions: cited from earlier work
bovine lens cells = conditions: cited from earlier work
[7] = tested on: hyalocyte-containing collagen gel; conditions: cited from earlier work

In the case of Cc1cncc2cccc(S(=O)(=O)N3CCCNC[C@@H]3C)c12 [H-1152], the “transdifferentiation and contraction of myofibroblasts induced by TGF-β” value (“transdifferentiation and contraction” for short) (myofibroblasts) is given as “inhibit the transdifferentiation and contraction”.

For O=S(=O)(c1cccc2c(I)cccc12)N1CCCNCC1 [ML-7], the “transdifferentiation and contraction” value (myofibroblasts) is given as “inhibit the transdifferentiation and contraction”.

In the case of O=S(=O)(c1cccc2cnccc12)N1CCCNCC1 [HA-1077], the “transdifferentiation and contraction” value (myofibroblasts) is given as “inhibit the transdifferentiation and contraction”.

With C=C1[C@@H](C)[C@H]2[C@H](Cc3ccccc3)NC(=O)[C@]23[C@H](OC(C)=O)/C=C/[C@@](C)(O)C(=O)[C@@H](C)C/C=C/[C@H]3[C@@H]1O [Cytochalasin D, reference compound] the “actin stress fibers (observation)” value ([1]; 2 μM) was “significantly disappear”, the “cell migration into Detection Zone (observation)” value (HLEpiC [2]; 2 μM) was “inhibitory action on cell migration was further recognized” and the “time after removal at which Detection Zone was filled with HLEpiC” value (HLEpiC [3]; 2 μM treatment) was “about 48 hours”. The “reversibility of actin stress fibers” value ([4]; 2 μM) was “recovered” and the G-actin/F-actin ratio (HLEpiC [5]) was 25.03.

For CC1CNCCN1S(=O)(=O)c1cccc2cnccc12 (stereo not shown) [H-7], the “effect on posterior capsule opacification (PCO)” value [6] is given as “ineffective” and the “resolving Soemmerring's ring” value [6] is given as “effective”.

In the case of O=c1[nH]ccc2c(S(=O)(=O)N3CCCNCC3)cccc12 [HF, Hydroxyfasudil], the “contraction induced by cytokines such as PDGF-BB and TGF-β2” value (bovine lens cells) is given as “inhibited contraction”.

In the case of C[C@@H](N)[C@H]1CC[C@H](C(=O)Nc2ccncc2)CC1 [Y-27632, reference compound], the “actin stress fibers (observation)” value ([1]; 1 mM) is given as “disappear”, the “cell migration into Detection Zone (observation)” value (HLEpiC [2]; 1 mM) is given as “inhibitory action on cell migration was also recognized” and the “transdifferentiation and contraction” value (myofibroblasts) is given as “inhibit the transdifferentiation and contraction”. For the same compound, the “state of Detection Zone about 48 hours after removal” value (HLEpiC [3]; 1 mM treatment, about 48 hours after removal) was “not filled with HLEpiC”, the “time after removal at which Detection Zone was filled with HLEpiC” value (HLEpiC [3]; 1 mM treatment) was 116 h and the “contraction induced by cytokines such as PDGF-BB and TGF-β2” value (bovine lens cells) was “inhibited contraction”. For the same compound, the “reversibility of actin stress fibers” value ([4]; 1 mM) was “recovered”.

For O=S(=O)(c1cccc2cnccc12)N1CCCNCC1 [fasudil], the “hyalocyte-containing collagen gel contraction” value [7] is listed as “inhibits”.
